System: B. pseudomallei Bp82
Assay: microbe, parasite or virus in culture
Assay type: cell-based
Settings: Burkholderia pseudomallei, BP82, read-out: Minimum inhibitory concentration, B. pseudomallei Bp82

O=C(O)c1c(F)ccc2c1OB(O)[C@@H](NC(=O)C(NC(=O)N1CCN(Cc3ccc(O)c(O)c3Cl)C(=O)C1=O)c1ccc(P(=O)(O)O)cc1)C2 (stereo partly drawn) [Example 8, (3R)-3-(2-(4-(2-chloro-3,4-dihydroxybenzyl)-2,3-dioxopiperazine-1-carboxamido)-2-(4-phosphonophenyl)acetamido)-7-fluoro-2-hydroxy-3,4-dihydro-2H-benzo[e][1,2]oxaborinine-8-carboxylic acid]
MIC: < 1 µg/mL
